# From PubChem BioAssay (NCI)
#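 Five concentrations, 48 hours, 96-well plates. At the GI50, growth is halved. The concentration for full growth arrest is given as TGI.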
# Experiments:
# Experiment in all cases: inhibition of tumour cell growth, NCI panel, 48 h
# OVCAR-3 ovarian = test system: OVCAR-3 ovarian
# HL-60(TB) leukemia = test system: HL-60(TB) leukemia
# RPMI-8226 leukemia = test system: RPMI-8226 leukemia
# A549 NSCLC = test system: A549 NSCLC
# DU-145 prostate = test system: DU-145 prostate
# OVCAR-5 ovarian = test system: OVCAR-5 ovarian
# EKVX NSCLC = test system: EKVX NSCLC
# MALME-3M melanoma = test system: MALME-3M melanoma
# NCI/ADR-RES ovarian = test system: NCI/ADR-RES ovarian
# SN12C renal = test system: SN12C renal
# U251 CNS = test system: U251 CNS
# NCI-H23 lung = test system: NCI-H23 lung
# TK-10 renal = test system: TK-10 renal
# SF-268 CNS = test system: SF-268 CNS
# NCI-H226 lung = test system: NCI-H226 lung
# T-47D breast = test system: T-47D breast
# KM12 colon = test system: KM12 colon
# SNB-75 CNS = test system: SNB-75 CNS
# RXF 393 renal = test system: RXF 393 renal
# SK-MEL-2 melanoma = test system: SK-MEL-2 melanoma
# HCC-2998 colon = test system: HCC-2998 colon
# SW-620 colon = test system: SW-620 colon
# HS 578T breast = test system: HS 578T breast
# HCT-116 colon = test system: HCT-116 colon
# MDA-MB-231 breast = test system: MDA-MB-231 breast
# A498 renal = test system: A498 renal
# MDA-MB-435 = test system: MDA-MB-435
# BT-549 breast = test system: BT-549 breast
# HT29 colon = test system: HT29 colon
smiles,measurement,setting,value
C#CCn1cccc1CNc1ccc(OC)cc1,GI50,OVCAR-3 ovarian,64.4 µM
same,TGI,OVCAR-3 ovarian,> 100 µM
same,GI50,HL-60(TB) leukemia,34.6 µM
same,TGI,HL-60(TB) leukemia,> 100 µM
same,GI50,RPMI-8226 leukemia,25 µM
same,TGI,RPMI-8226 leukemia,> 100 µM
same,GI50,A549 NSCLC,> 100 µM
same,TGI,A549 NSCLC,> 100 µM
same,GI50,DU-145 prostate,> 100 µM
same,TGI,DU-145 prostate,> 100 µM
same,GI50,OVCAR-5 ovarian,> 100 µM
same,TGI,OVCAR-5 ovarian,> 100 µM
same,GI50,EKVX NSCLC,25.5 µM
same,TGI,EKVX NSCLC,> 100 µM
same,GI50,MALME-3M melanoma,> 100 µM
same,TGI,MALME-3M melanoma,> 100 µM
same,GI50,NCI/ADR-RES ovarian,> 100 µM
same,TGI,NCI/ADR-RES ovarian,> 100 µM
same,GI50,SN12C renal,> 100 µM
same,TGI,SN12C renal,> 100 µM
same,GI50,U251 CNS,> 100 µM
same,TGI,U251 CNS,> 100 µM
same,GI50,NCI-H23 lung,46.4 µM
same,TGI,NCI-H23 lung,> 100 µM
same,GI50,TK-10 renal,> 100 µM
same,TGI,TK-10 renal,> 100 µM
same,GI50,SF-268 CNS,> 100 µM
same,TGI,SF-268 CNS,> 100 µM
same,GI50,NCI-H226 lung,> 100 µM
same,TGI,NCI-H226 lung,> 100 µM
same,GI50,T-47D breast,37.8 µM
same,TGI,T-47D breast,> 100 µM
same,GI50,KM12 colon,51.7 µM
same,TGI,KM12 colon,> 100 µM
same,GI50,SNB-75 CNS,> 100 µM
same,TGI,SNB-75 CNS,> 100 µM
same,GI50,RXF 393 renal,> 100 µM
same,TGI,RXF 393 renal,> 100 µM
same,GI50,SK-MEL-2 melanoma,> 100 µM
same,TGI,SK-MEL-2 melanoma,> 100 µM
same,GI50,HCC-2998 colon,> 100 µM
same,TGI,HCC-2998 colon,> 100 µM
same,GI50,SW-620 colon,> 100 µM
same,TGI,SW-620 colon,> 100 µM
same,GI50,HS 578T breast,> 100 µM
same,TGI,HS 578T breast,> 100 µM
same,GI50,HCT-116 colon,75.7 µM
same,TGI,HCT-116 colon,> 100 µM
same,GI50,MDA-MB-231 breast,> 100 µM
same,TGI,MDA-MB-231 breast,> 100 µM
same,GI50,A498 renal,8.54 µM
same,TGI,A498 renal,> 100 µM
same,GI50,MDA-MB-435,78.9 µM
same,TGI,MDA-MB-435,> 100 µM
same,GI50,BT-549 breast,57 µM
same,TGI,BT-549 breast,> 100 µM
same,GI50,HT29 colon,> 100 µM
same,TGI,HT29 colon,> 100 µM
